Source: the supplement of paper PMC13380429

What was measured:
Details in all cases: 72 h
Calu-3 [1] = experiment: relative viability EC50 (midpoint between 100% and the lowest measured viability); higher = less toxic
HepG2 [2] = experiment: as above
U2OS [3] = experiment: as above
Caco-2 [4] = experiment: as above
Calu-3 [5] = experiment: cell viability relative to DMSO; higher = less toxic
HepG2 [6] = experiment: as above
U2OS [7] = experiment: as above
Caco-2 [8] = experiment: as above
Calu-3 [9] = experiment: drug sensitivity score (DSS) for viability; higher = more toxic; extreme values may be limits of the assay
HepG2 [10] = experiment: as above
U2OS [11] = experiment: as above
Caco-2 [12] = experiment: as above
Vero E6 [13] = experiment: relative viability EC50 (midpoint between 100% and the lowest measured viability); higher = less toxic
Vero E6 [14] = experiment: cell viability relative to DMSO; higher = less toxic
Vero E6 [15] = experiment: drug sensitivity score (DSS) for viability; higher = more toxic; extreme values may be limits of the assay

| Structure (SMILES) | relative viability EC50 (Calu-3 [1]) [µM] | relative viability EC50 (HepG2 [2]) [µM] | relative viability EC50 (U2OS [3]) [µM] | relative viability EC50 (Caco-2 [4]) [µM] | cell viability (Calu-3 [5]; 1 nM) [%] | cell viability (Calu-3 [5]; 10 nM) [%] | cell viability (Calu-3 [5]; 100 nM) [%] | cell viability (Calu-3 [5]; 1000 nM) [%] | cell viability (Calu-3 [5]; 10000 nM) [%] | cell viability (HepG2 [6]; 1 nM) [%] | cell viability (HepG2 [6]; 10 nM) [%] | cell viability (HepG2 [6]; 100 nM) [%] | cell viability (HepG2 [6]; 1000 nM) [%] | cell viability (HepG2 [6]; 10000 nM) [%] | cell viability (U2OS [7]; 1 nM) [%] | cell viability (U2OS [7]; 10 nM) [%] | cell viability (U2OS [7]; 100 nM) [%] | cell viability (U2OS [7]; 1000 nM) [%] | cell viability (U2OS [7]; 10000 nM) [%] | cell viability (Caco-2 [8]; 1 nM) [%] | cell viability (Caco-2 [8]; 10 nM) [%] | cell viability (Caco-2 [8]; 100 nM) [%] | cell viability (Caco-2 [8]; 1000 nM) [%] | cell viability (Caco-2 [8]; 10000 nM) [%] | drug sensitivity score (Calu-3 [9]) | drug sensitivity score (HepG2 [10]) | drug sensitivity score (U2OS [11]) | drug sensitivity score (Caco-2 [12]) | relative viability EC50 (Vero E6 [13]) [µM] | cell viability (Vero E6 [14]; 1 nM) [%] | cell viability (Vero E6 [14]; 10 nM) [%] | cell viability (Vero E6 [14]; 100 nM) [%] | cell viability (Vero E6 [14]; 1000 nM) [%] | cell viability (Vero E6 [14]; 10000 nM) [%] | drug sensitivity score (Vero E6 [15]) |
| --- | --- | --- | --- | --- | --- | --- | --- | --- | --- | --- | --- | --- | --- | --- | --- | --- | --- | --- | --- | --- | --- | --- | --- | --- | --- | --- | --- | --- | --- | --- | --- | --- | --- | --- | --- |
| N[C@H](Cc1c[nH]cn1)C(=O)O [copper-histidine] | > 10 | > 10 | > 10 | > 10 | 105 | 94.4 | 84.8 | 82.1 | 99.5 | 110 | 98.7 | 103 | 104 | 89.3 | 101 | 96.1 | 95.8 | 97.3 | 97.3 | 106 | 102 | 107 | 98.8 | 107 | 0.1 | 0 | 0 | 0 | – | – | – | – | – | – | – |
| C[C@]12C[C@H](O)[C@H]3[C@@H](CCC4=CC(=O)CC[C@@]43C)[C@@H]1CC[C@@H]2C(=O)CO [corticosterone] | > 10 | – | > 10 | > 10 | 101 | 101 | 96.4 | 97.2 | 93.7 | – | – | – | – | – | 94.9 | 100 | 92.3 | 96.1 | 97.9 | 92.8 | 114 | 114 | 101 | 91.5 | 0 | – | 0 | 0 | > 10 | 96.1 | 91.6 | 101 | 90.6 | 87.8 | 0 |
| NCCS [cysteamine] | > 10 | – | > 10 | > 10 | 87.7 | 100 | 98.3 | 99.1 | 102 | – | – | – | – | – | 102 | 102 | 95.1 | 99.7 | 97.4 | 102 | 108 | 104 | 100 | 93.8 | 0 | – | 0 | 0 | > 10 | 106 | 101 | 99.8 | 94.8 | 99.9 | 0 |
| Nc1ncnc2c1ncn2[C@H]1CC[C@@H](CO)O1 [dideoxyadenosine] | > 10 | – | > 10 | > 10 | 98.8 | 95.4 | 89.1 | 107 | 108 | – | – | – | – | – | 96.3 | 100 | 93.7 | 99.3 | 102 | 98.6 | 95.3 | 94.6 | 94.6 | 104 | 0 | – | 0 | 0 | > 10 | 101 | 98 | 99.3 | 106 | 102 | 0 |
| Nc1nc(=O)[nH]cc1F [flucytosine] | > 10 | > 10 | > 10 | > 10 | 87.6 | 102 | 99.9 | 91.1 | 111 | 101 | 110 | 97.6 | 109 | 110 | 98.6 | 99.2 | 102 | 97.9 | 104 | 97.6 | 94 | 100 | 96.5 | 92.9 | 0 | 0 | 0 | 0 | – | – | – | – | – | – | – |
| Oc1c(I)cc(I)c2cccnc12 [iodoquinol] | > 10 | 3.15 | > 10 | – | 106 | 98.6 | 99.7 | 93.4 | 98.4 | 109 | 99 | 93.7 | 99.9 | 36.1 | 104 | 100 | 102 | 98.5 | 85.2 | 107 | 94.3 | 97.1 | 96.3 | 63.1 | 0 | 3.5 | 0.4 | 2.4 | – | 100 | 106 | 100 | 99.8 | 68.1 | 1.5 |
| O=C1[C@@H]2[C@H]3CC[C@H](C3)[C@@H]2C(=O)N1C[C@@H]1CCCC[C@H]1CN1CCN(c2nsc3ccccc23)CC1 [lurasidone] | > 10 | > 10 | > 10 | – | 99.8 | 97.8 | 105 | 94.7 | 105 | 106 | 106 | 99.5 | 96.9 | 89.2 | 104 | 107 | 95.9 | 102 | 88.4 | 94.5 | 100 | 99.6 | 104 | 64.5 | 0 | 0.1 | 0 | 1.4 | > 10 | 104 | 102 | 103 | 99.6 | 97.2 | 0 |
| CC#C[C@]1(O)CC[C@H]2[C@@H]3CCC4=CC(=O)CCC4=C3[C@@H](c3ccc(N(C)C)cc3)C[C@@]21C [mifepristone] | > 10 | > 10 | > 10 | – | 96.2 | 103 | 88.7 | 96.3 | 109 | 93.6 | 92.6 | 102 | 90.3 | 99 | 100 | 100 | 100 | 104 | 91.8 | 88.8 | 93.4 | 94.1 | 100 | 72 | 0 | 0 | 0 | 1.2 | > 10 | 98 | 101 | 98.4 | 96.8 | 97.6 | 0 |
| O=C1CN(/N=C/c2ccc([N+](=O)[O-])o2)C(=O)N1 [nitrofurantoin] | > 10 | – | > 10 | > 10 | 106 | 111 | 97.6 | 94.3 | 102 | 98.4 | 111 | 113 | 109 | 60 | 104 | 97.9 | 101 | 101 | 103 | 101 | 101 | 95.8 | 89.9 | 103 | 0 | 1.5 | 0 | 0 | > 10 | 92.4 | 95.1 | 98.4 | 96.7 | 97.4 | 0 |
| CCCCCCCCCCCCOCCOCCOCCOCCOCCOCCOCCOCCOCCO [polidocanol] | > 10 | 3.8 | > 10 | – | 106 | 105 | 99.6 | 106 | 91.5 | 105 | 98.5 | 124 | 111 | 28.9 | 91.5 | 103 | 95.4 | 101 | 90.4 | 85.7 | 105 | 99.9 | 108 | 69.7 | 0 | 3.3 | 0 | 1 | > 10 | 99.5 | 89.7 | 104 | 108 | 116 | 0 |
| CCc1nc(N)nc(N)c1-c1ccc(Cl)cc1 [pyrimethamine] | > 10 | > 10 | > 10 | – | 101 | 111 | 101 | 99 | 107 | 108 | 91.5 | 102 | 93.2 | 77.9 | 100 | 108 | 99.8 | 102 | 96.8 | – | – | – | – | – | 0 | 1.6 | 0 | – | – | 96.3 | 93 | 103 | 99.9 | 60.7 | 2 |
| Cc1ncc(CSSCc2cnc(C)c(O)c2CO)c(CO)c1O [pyritinol] | > 10 | > 10 | > 10 | > 10 | 96.1 | 105 | 94.4 | 99.2 | 105 | 90 | 97.7 | 108 | 95.8 | 97.8 | 103 | 100 | 96.6 | 101 | 98.3 | 99.8 | 87.4 | 94.5 | 100 | 92.7 | 0 | 0 | 0 | 0 | – | – | – | – | – | – | – |
| C=C[C@](C)(O)CC[C@@H]1[C@@]2(C)CCCC(C)(C)[C@@H]2CC[C@@]1(C)O [sclareol] | > 10 | – | > 10 | > 10 | 101 | 98.7 | 98.7 | 104 | 94.4 | – | – | – | – | – | 107 | 96.6 | 96.4 | 98.8 | 94.6 | 101 | 98.8 | 99.7 | 102 | 87.6 | 0 | – | 0 | 0 | > 10 | 101 | 100 | 102 | 99.6 | 104 | 0 |
| Clc1ccc(CSC(Cn2ccnc2)c2ccc(Cl)cc2Cl)cc1 (stereo not drawn) [sulconazole] | > 10 | > 10 | > 10 | – | 107 | 95.5 | 102 | 110 | 96.7 | 86.9 | 87.4 | 102 | 99.1 | 98.1 | 97.5 | 101 | 96 | 101 | 93.7 | 99.5 | 92.7 | 97.3 | 94 | 63.5 | 0 | 0 | 0 | 2.7 | > 10 | 106 | 104 | 104 | 95.4 | 94.6 | 0 |
| Cc1cn([C@@H]2C[C@@H](O)[C@H](CO)O2)c(=O)[nH]c1=O [telbivudine] | > 10 | – | > 10 | > 10 | 118 | 92.2 | 105 | 107 | 114 | – | – | – | – | – | 97.8 | 103 | 96.8 | 99.1 | 105 | 92.6 | 108 | 99.8 | 106 | 116 | 0 | – | 0 | 0 | > 10 | 98.8 | 97.6 | 92.3 | 85 | 99.3 | 0 |
| CS(=O)(=O)c1ccc([C@@H](O)[C@@H](CO)NC(=O)C(Cl)Cl)cc1 [thiamphenicol] | > 10 | – | > 10 | > 10 | 106 | 94.5 | 102 | 89.7 | 97.8 | 101 | 110 | 93.4 | 101 | 67.3 | 99.5 | 97.5 | 105 | 96.6 | 99 | 99.7 | 89.8 | 91.7 | 93.4 | 94.4 | 0 | 1.4 | 0 | 0 | > 10 | 95.8 | 99.3 | 92.3 | 96.8 | 98.1 | 0 |
